In patent US6440440B1, “Biocidal benzylbiphenyl derivatives” (priority 1998, dated 2002):

Experiments:
Type in all cases: cell-based
Debaryomyces hansenii = assay: Screening against yeasts; parameters: key: 3 = complete inhibition of growth, 2 = growth partially controlled; conditions: test compound concentration 500 μM
Procedure: (§1) The stock solutions with the test compounds were pipetted into multiwell plates and mixed with warm tryptose broth agar (2.6%) in order to reach a test compound concentration of 500 μMol. The medium was allowed to cool and subsequently inoculated with the bacteria. Wells were placed in an incubator at 27° C. and a relative humidity of 70%. After sufficient growth of the untreated cultures, the test was evaluated.
(§2) 3: complete inhibition of bacterial growth
(§3) 2: bacterial growth partially controlled
(§4) A number of compounds of formula (I) were also tested in a screening against certain The test conditions are the same as described in biological example C.1. The concentration of the test compound was also 500 μmol, and the scoring system used was also the same.
Debaryomyces hansenii (19)

Pseudomonas aeruginosa = assay: Primary bacteria screening; parameters: key: score: 3 = complete inhibition of growth, 2 = growth partially controlled; conditions: test compound concentration 500 μMol in tryptose broth agar, 27° C.
Procedure: as §1, §2, §3

Escherichia coli = assay: Primary bacteria screening; parameters: key: score: 3 = complete inhibition of growth, 2 = growth partially controlled; conditions: test compound concentration 500 μMol in tryptose broth agar, 27° C.
Procedure: as §1, §2, §3

Rhodotorula rubra = assay: Screening against yeasts; parameters: key: 3 = complete inhibition of growth, 2 = growth partially controlled; conditions: test compound concentration 500 μmol
Procedure: as §1, §2, §3, §4

Sporobolomyces roseus = assay: Screening against yeasts; parameters: key: 3 = complete inhibition of growth, 2 = growth partially controlled; conditions: test compound concentration 500 μmol
Procedure: as §1, §2, §3, §4
Sporobolomyces roseus (21)

Row | Structure (SMILES) | Test yeast (19) Debaryomyces hansenii (score) (Debaryomyces hansenii) | P. aeruginosa (growth inhibition score) (Pseudomonas aeruginosa) | E. coli (growth inhibition score) (Escherichia coli) | Test yeast (20) Rhodotorula rubra (score) (Rhodotorula rubra) | Test yeast (21) Sporobolomyces roseus (score) (Sporobolomyces roseus)
1 | Cl.Cl.c1ccc(-c2ccc(C(c3ccccc3)C3CCN(C4CCNCC4)CC3)cc2)cc1 (single isomer, unassigned) [compound 22] | 3 | 1 | 3 | 1 | 3
2 | c1ccc(-c2ccc(C(c3ccccc3)C3CCN(C4CCNCC4)CC3)cc2)cc1 (single isomer, unassigned) [compound 23] | 3 | 3 | 1 | 3 | 3
3 | Cl.Cl.Fc1ccc(-c2ccc(C(c3ccc(F)cc3)C3CCN(C4CCNCC4)CC3)cc2)cc1 (stereo not shown) [compound 6] | 3 | 3 | 3 | 3 | 3
4 | Cc1ccc(C(c2ccc(-c3ccc(F)cc3)cc2)C2CCN(C3CCNCC3)CC2)cc1.Cl.Cl (stereo not shown) [compound 9] | 3 | 2 | 3 | 3 | 3
5 | Cl.Fc1ccc(C(c2ccc(-c3ccccc3)cc2)C2CCN(C3CCNCC3)CC2)cc1 (stereo not shown) [compound 11] | 3 | 3 | 3 | 1 | 3
6 | Br.Br.COc1ccc(C(c2ccc(-c3ccccc3)cc2)C2CCN(C3CCNCC3)CC2)cc1 (stereo not shown) [compound 12] | 3 | 2 | 3 | 2 | 3
7 | Cl.Cl.Oc1ccc(C(c2ccc(-c3ccccc3)cc2)C2CCN(C3CCNCC3)CC2)cc1 (stereo not shown) [compound 13] | 3 | 3 | 3 | 1 | 3
8 | NCCCN1CCC(N2CCC(C(c3ccccc3)c3ccc(-c4ccccc4)cc3)CC2)CC1 (stereo not shown) [compound 16] | 3 | 3 | 3 | 3 | 3
9 | CCN1CCC(N2CCC(C(c3ccccc3)c3ccc(-c4ccccc4)cc3)CC2)CC1.Cl.Cl (stereo not shown) [compound 18] | 3 | 2 | 1 | 1 | 3
10 | NCCC1CCN(CC=C(c2ccccc2)c2ccc(-c3ccccc3)cc2)CC1.O=C(O)C(=O)O.O=C(O)C(=O)O [compound 25] | 3 | 1 | 3 | 1 | 3
11 | NCC1CCN(CC=C(c2ccccc2)c2ccc(-c3ccccc3)cc2)CC1.O=C(O)C(=O)O.O=C(O)C(=O)O [compound 26] | 3 | 1 | 3 | 2 | 3
12 | NC1CCN(CC=C(c2ccccc2)c2ccc(-c3ccccc3)cc2)CC1.O=C(O)C(=O)O.O=C(O)C(=O)O [compound 27] | 3 | 1 | 3 | 1 | 3
13 | Cl.Cl.NCCC1CCN(CCC(c2ccccc2)c2ccc(-c3ccccc3)cc2)CC1 (stereo not shown) [compound 29] | 3 | 1 | 3 | 3 | 3
14 | Cl.Cl.NCC1CCN(CCC(c2ccccc2)c2ccc(-c3ccccc3)cc2)CC1 (stereo not shown) [compound 30] | 3 | 1 | 3 | 1 | 3
15 | Cl.Cl.NC1CCN(CCC(c2ccccc2)c2ccc(-c3ccccc3)cc2)CC1 (stereo not shown) [compound 31] | 3 | 1 | 3 | 1 | 3
16 | CN(C)CC1CCN(CCC(c2ccccc2)c2ccc(-c3ccccc3)cc2)CC1 (stereo not shown) [compound 33] | 3 | 1 | 1 | 3 | 3
17 | CN(C)CCNCCC(c1ccccc1)c1ccc(-c2ccccc2)cc1 (stereo not shown) [compound 39] | 3 | 1 | 3 | 1 | 3
18 | CN(C)CCCN1CCC(C(c2ccccc2)c2ccc(-c3ccccc3)cc2)CC1.Cl.Cl (stereo not shown) [compound 43] | 3 | 2 | 1 | 2 | 3
19 | Cl.Cl.Cl.c1ccc(-c2ccc(C(c3ccccc3)N3CCN(C4CCNCC4)CC3)cc2)cc1 (stereo not shown) [compound 46] | 3 | 3 | 1 | 1 | 3
20 | c1ccc(-c2ccc(C(NC3CCN(C4CCNCC4)CC3)c3ccccc3)cc2)cc1 (stereo not shown) [compound 47] | 3 | 1 | 3 | 3 | 3
21 | Cl.Cl.Cl.NC1CCN(C2CCN(C(c3ccccc3)c3ccc(-c4ccccc4)cc3)CC2)CC1 (stereo not shown) [compound 49] | 3 | 1 | 3 | 2 | 3
22 | Br.Br.c1ccc(-c2ccc(C(CCNC3CCNCC3)c3ccccc3)cc2)cc1 (stereo not shown) [compound 50] | 3 | 1 | 3 | 3 | 3
23 | Br.Br.CN(CCC(c1ccccc1)c1ccc(-c2ccccc2)cc1)C1CCNCC1 (stereo not shown) [compound 51] | 3 | 1 | 3 | 3 | 3
